This is an account of results in ChEMBL document CHEMBL6071209, “Design, Synthesis, and Biological Evaluation of a Series of Spiro Analogues as Novel HPK1 Inhibitors” (ACS Med Chem Lett, 2024).

For data set [1] the following is noted: mouse, in vivo, po, 10 mg/kg, 24 h.
The conditions of data set [2]: rat, in vivo, po, 10 mg/kg, 24 h.
A short description of data set [3]: in vivo. As to conditions: BALB/c, mouse, iv, 1 mg/kg.
Data set [4] can be described thus: in vivo. As to conditions: BALB/c, mouse, iv, 1 mg/kg. This is another data set of the same source.
Data set [5] can be described thus: in vivo. As to conditions: Sprague-Dawley, rat, iv, 1 mg/kg.
A short description of data set [6]: in vivo. As to conditions: BALB/c, mouse, po, 10 mg/kg.
Data set [7] in a line: Clearance in Beagle dog at 1 mg/kg, iv measured upto 24 hrs by LC-MS/MS method. It counts as ADME, organism-based, Canis lupus familiaris. The note with it: in vivo.
A short description of data set [8]: Volume of distribution in Beagle dog at 1 mg/kg, iv measured upto 24 hrs by LC-MS/MS method. It counts as ADME, organism-based, Canis lupus familiaris. The note with it: in vivo.
The conditions of data set [9]: mouse, in vivo, iv, 1 mg/kg, 24 h.
Data set [10] can be described thus: in vivo. As to conditions: Sprague-Dawley, rat, iv, 1 mg/kg. This is another data set of the same source.
The nature of data set [11]: in vivo. As to conditions: beagle, dog, po, 2 mg/kg.
Data set [12] can be described thus: Volume of distribution in Sprague-Dawley rat at 1 mg/kg, iv measured upto 24 hrs by LC-MS/MS method. Format: ADME, organism-based. As to conditions: in vivo.
Data set [13] can be described thus: Bioavailability in Beagle dog at 1 mg/kg, iv measured upto 24 hrs by LC-MS/MS method. As to conditions: in vivo. It counts as ADME, organism-based, Canis lupus familiaris.
The conditions of data set [14]: dog, in vivo, po, 2 mg/kg, 24 h.
The nature of data set [15]: Volume of distribution in BALB/c mouse at 1 mg/kg, iv measured upto 24 hrs by LC-MS/MS method. The note with it: in vivo. Format: ADME, organism-based.
Data set [16] is described as follows: in vivo. As to conditions: Sprague-Dawley, rat, iv, 1 mg/kg. The source holds these as a separate data set.

Structures are written as SMILES.

As to `O=C1NCc2c(-c3cnc4cc(F)ccn34)ccc(Nc3ccc4c(n3)CN(CCN3CC[C@@H](F)C3)C43CCOCC3)c21`, the results for the AUC/dose in [1] and in [2] were 290.2 ng·h/mL and 43.5 ng·h/mL, respectively. Besides, the bioavailability at 24 h in [3] worked out at 50%. This compound also yielded a clearance at 24 h in [4] of 28 mL/min/kg. Also, the figures for the half-life at 24 h in data set [5] and in data set [6] were 4.1 h and 1.4 h, respectively.

`COC1CCC2(CC1)c1ccc(Nc3ccc(-c4cnc5cc(F)ccn45)c4c3C(=O)NC4)nc1CN2C` (configuration not stated) had an AUC/dose in data set [2] of 15.3 ng·h/mL. In data set [5], this compound gave a half-life at 24 h of 1 h.

Turning to `CN(C)Cc1nc(Nc2ccc(-c3cnc4cc(F)ccn34)c3c2C(=O)NC3)ccc1C1CCOCC1`, the clearance in [7] was determined as 108 mL/min/kg. For the same compound, the Vd was 24.2 L/kg in [8], 12.5 L/kg in data set [12] and 5 L/kg in data set [15]. In [9], this compound had an F of 187%. The figures for the AUC/dose in data set [1], in data set [2] and in [14] were 224.5 ng·h/mL, 31.2 ng·h/mL and 6.5 ng·h/mL, respectively. Moreover, the bioavailability at 24 h in [10] was found to be 38%. Moreover, the clearance at 24 h in [4] is 138 mL/min/kg; in data set [16], 230 mL/min/kg. Further, the half-life at 24 h in [11] is 1.5 h; in data set [6], 3.7 h. For the same compound, the bioavailability in data set [13] was found to be 4.9%.

Usually bioavailability stands for the share of a dose that reaches the circulation, judged against a reference dose that is usually intravenous. Low values mean poor availability, high ones good availability. By clearance is commonly meant the volume of plasma or blood freed of the substance per unit of time. The low end stands for a low capacity for elimination, the high end for a high capacity for elimination. What is called half-life is the time in which the quantity being followed falls by half. High values mean slow decline, low ones rapid decline. As usually defined, the Vd is the apparent volume that relates the amount in the body to the concentration in plasma or blood. Read a high Vd as wide distribution into tissue.
